System: TNFα production
Assay: Inhibition of the production of TNFα in vivo (Test Examples 2 and 2′)
Settings: Table 9′; Balb/c mice, oral administration 30 minutes before intravenous lipopolysaccharide, plasma TNFα 1 hour after LPS
Protocol: This test was performed according to the method of Ochalski, et al. [S. J. Ochalski, D. A. Hartman, M. T. Belfast, T. L. Walter, K. B. Glaser and R. P. Carlson; Inhibition of endotoxin-induced hypothermia and serum TNF-α levels in CD-1 mice by various pharmacological agents: Agents Actions 39, C52–C54 (1993)].
The production of TNFα was induced in mice by the intravenous injection of lipopolysaccharide (E. coli O26: B6 origin, Difco) which was prepared to a concentration of 0.045 mg/ml using physiological saline. The saline preparation of lipopolysaccharide was administered at the rate of 10 ml/l kg of body weight into the caudal vein of Balb/c mice (males, age 5–7 weeks, body weight: approx. 22 g, Japan Charles River) which had been fasted overnight starting on the day before the experiment. One hour after administration, the mice were laparotomized under ether anaesthesia and blood was collected from the abdominal vena cava. Blood collection was performed using a 1 ml volume disposable syringe equipped with a 23G needle which had been moistened with heparin on the inside wall. Following blood collection, the blood was immediately transferred to a 1.5 ml volume Eppendorf tube and centrifuged at 4° C. and 14,000 rpm to separate the plasma. This plasma was then stored at −20° C. until measurement of TNFα. The measurement of the amount of TNFα was performed with a commercially available enzyme immunoassay (ELISA) kit (Mouse TNFα ELISA KIT, Genzyme).
To determine the inhibitory activity of the test compounds, each test compound was suspended in a 0.5% tragacanth solution and then administered orally to the Balb/c mice at the rate of 10 ml/1 kg of body weight 30 minutes before injection of lipopolysaccharide. The level of TNFα production was then determined as described above. In the control group, 0.5% tragacanth solution was administered at the rate of 10 ml/1 kg of body weight to the test mice instead of the solutions of the test compounds. A minimum of 3 dose levels of the test compound was administered to groups of 5 test mice for each test compound. The inhibitory rate relative to the control group was calculated for each dose level. From the inhibitory rates and the dosages, ID50 values were calculated by the least squares method.
The production of TNFα was induced in mice by the intravenous injection of lipopolysaccharide (E. coli O26: B6 origin, Difco) which was prepared to a concentration of 0.045 mg/ml using physiological saline. […]
To determine the inhibitory activity of the test compounds, each test compound was suspended in a 0.5% tragacanth solution and then administered orally to the Balb/c mice at the rate of 10 ml/1 kg of body weight 30 minutes before injection of lipopolysaccharide. The level of TNFα production was then determined as described above. […]

With CC1C[C@H]2C=C(c3c[nH]c(-c4ccc(F)cc4)c3-c3ccncc3)CCN2C1 (stereo partly drawn) [Example 16′, 2-(4-Fluorophenyl)-4-[(8aS)-2-methyl-1,2,3,5,6,8a-hexahydroindolizin-7-yl]-3-(pyridin-4-yl)1H-pyrrole] the “Inhibitory Effect on TNFα Production (in vivo) IC50” value was 0.71 mg/kg.
